Assays:
[1] = test system: patients with chronic decompensated HF; assay: FUSION I: quality of life, Minnesota Living With HF questionnaire; type: in vivo, human; conditions: weeks 4, 8, and 12
Experimental: At weeks 4, 8, and 12, the change from baseline global clinical status was assessed by both the patient and the investigator; assessments were rated on a 7-point ordinal scale from markedly worse (−3) to markedly better (+3).^1l,12 In addition, patients' assessment of quality of life was measured at baseline and at weeks 4, 8, and 12 using the Minnesota Living With HF questionnaire. (Rector TS, Kubo SH, Cohn J N. Patients' self-assessment of their congestive heart failure. Part 2: Content, reliability and validity of a new measure, The Minnesota Living with Heart Failure Questionnaire. Heart Failure 1987;October/November:198-209.)

[2] = test system: patients with chronic decompensated HF; assay: FUSION I: use of IV inotropic agents during study visits; type: in vivo, human
From the text: Patients in all treatment groups were allowed to receive any long-term cardiac or noncardiac medications, including IV diuretics, according to investigator discretion. At each visit, the investigator ensured that optimal medical treatment regimens were established. Patients who were randomized to usual care only were allowed to receive positive inotropic agents (milrinone, dobutamine, or dopamine) only if the investigator believed that inotropic support was required to alleviate symptomatic HF and yield hemodynamic stability. Inotropic agents were not permitted in the nesiritide groups unless they were urgently required to prevent hospitalization. During hospitalization, there was no restriction on the use of inotropic agents or nesiritide, regardless of treatment group.

[3] = all patients who received nesiritide

Question: What does the source list for “Nesiritide: a recombinant form of human B-type natriuretic peptide (BNP)”?
Answer: Quality of life, between treatment groups [1]: no significant differences; Quality of life compared with baseline ([1]; all treatment groups): significant improvement; Patients receiving IV inotropic agents during study visits through week 12, number ([2]; 0.005 μg/kg/min, n = 72): 0; Patients receiving IV inotropic agents during study visits through week 12, % ([2]; 0.01 μg/kg/min, n = 69): 3%; Patients receiving IV inotropic agents during study visits through week 12, number ([2]; 0.01 μg/kg/min, n = 69): 2; Patients who also received an inotropic agent during a study visit because of decompensated HF, % [2, 3]: < 2%; Patients who also received an inotropic agent during a study visit because of decompensated HF, number [2, 3]: 2
